Measurements from patent US20150050677A1, “METHODS AND SYSTEMS FOR MEASURING WHOLE BLOOD PLATELET REACTIVITY” (University of Massachusetts Medical School, priority 2013, published 2015).
Read-outs that look alike come from different tables or passages of the source.

Experiments:
[1] = test system: platelet reactivity (PRU); details: PRU value >208; of the 3283 patients screened; cited from earlier work
[2] = test system: ADP-induced platelet aggregation; details: P<0.0001
Method: After collection of baseline blood samples but prior to coronary angiography, subjects were administered a loading dose of 300-600 mg clopidogrel. Percutaneous coronary intervention (PCI) was performed at the same time on an ad hoc basis at the discretion of the treating physician. Patients were excluded from further analysis if a glycoprotein IIb/IIIa antagonist was used during PCI.
Blood samples were collected at baseline, prior to clopidogrel administration, and 6-24 hours later, after the catheterization procedure. After discarding the first 10 ml, blood was collected into siliconized glass vacutainers containing 3.2% sodium citrate (for platelet function testing and measurement of fibrinogen and vonWillebrand factor antigen) or EDTA-containing vacutainers (for complete blood counts). The samples were maintained at room temperature and hand-delivered to the laboratory where platelet function analyses were performed within 60 minutes of collection. Aliquots of centrifuged platelet-poor plasma and serum were stored at −70° C. until batch analyzed.
Citrated blood was centrifuged to obtain platelet-rich plasma (PRP) and adjusted to a final platelet count of 180,000 mm^−3 as previously described. […]

[3] = test system: platelet reactivity (PRU); details: PRU≧235; of the 1213 patients in the assay-guided group; cited from earlier work
[4] = test system: ADP-induced platelet aggregation; details: for Number of subjects with clopidogrel HTPR by original PRU: post-clopidogrel
[5] = test system: maximal platelet reactivity (iso-TRAP-induced platelet activation); details: 6-24 hours after 300-600 mg clopidogrel loading; pre-clopidogrel 279±47; p<0.0001; mean±SD

In the case of COC(=O)[C@H](c1ccccc1Cl)N1CCc2sccc2C1 [clopidogrel], the “patients classified as having HTPR” value [1] is given as 625 patients, the “median aggregation by WBA after clopidogrel loading” value ([2]; 10 μM ADP, fell from 16 (IQR;11,24)) is given as 4 (IQR; 0,12) ohms and the “median aggregation by LTA after clopidogrel loading” value ([2]; 20 μM ADP, fell from 84 (IQR;71, 94)) is given as 52 (IQR;37,70) percent. For the same compound, the “patients with clopidogrel HTPR” value [3] was 419 (35%) patients (%), the “mean VerifyNow PRU following clopidogrel loading” value ([4]; 6-24 hours after 300-600 mg clopidogrel loading, pre-clopidogrel 287±56, p<0.0001, mean±SD) was 179±90 PRU and the “Number of subjects with clopidogrel HTPR by Corrected PRU” value (shortened to “Number of subjects … by Corrected PRU”) ([4]; PRU threshold ≧178, PRU corrected for hematocrit (7.5 PRU per percent around 42%)) was 46 (48%) subjects (%). The “Number of subjects with clopidogrel HTPR by original PRU” value (“Number of subjects … by original PRU” for short) ([4]; PRU threshold ≧178) was 50 (51%) subjects (%), the “Number of subjects … by Corrected PRU” value ([4]; PRU threshold ≧208, PRU corrected for hematocrit) was 33 (34%) subjects (%) and the “Number of subjects … by original PRU” value ([4]; PRU threshold ≧208) was 39 (40%) subjects (%). For the same compound, the “Number of subjects … by Corrected PRU” value ([4]; PRU threshold ≧230, PRU corrected for hematocrit) was 21 (22%) subjects (%), the “Number of subjects … by original PRU” value ([4]; PRU threshold ≧230) was 31 (32%) subjects (%) and the “Number of subjects … by Corrected PRU” value ([4]; PRU threshold ≧235, PRU corrected for hematocrit) was 19 (20%) subjects (%). For the same compound, the “Number of subjects … by original PRU” value ([4]; PRU threshold ≧235) was 30 (31%) subjects (%), the “Number of subjects … by Corrected PRU” value ([4]; PRU threshold ≧236, PRU corrected for hematocrit) was 18 (19%) subjects (%) and the “Number of subjects … by original PRU” value ([4]; PRU threshold ≧236) was 30 (31%) subjects (%). For the same compound, the “change in PRU following clopidogrel loading (mean PRU)” value ([4]; subjects with anemia) was 106±89 PRU, the “change in PRU following clopidogrel loading (mean PRU)” value ([4]; subjects without anemia, p=0.96 vs anemia) was 107±85 PRU and the “mean BASE following clopidogrel loading” value [5] was 298±53 Base units.
